Assay results reported in patent US12030936B2, “Modulating the effects of gamma-c-cytokine signaling for the treatment of alopecia and alopecia associated disorders” (BIONIZ THERAPEUTICS, LLC, priority 2019, dated 2024).

How the values were obtained:
[1] = test system: humanized NSG mice; assay: Immunohistochemistry of humanized NSG mouse skin tissue for human CD8 T cells; format: in vivo; conditions: 7-weeks post-transplant with vs without BNZ-γ treatment
Experimental: In order to characterize the nature of immune attack in the skin tissue and around the hair follicles, immunohistochemistry studies were conducted of the skin tissue of humanized NSG mice 3-weeks (pre-BNZ-γ) and 7-weeks (with or without BNZ-γ treatment) after transplantation of 2 million huPBMCs. The tissue was fixed for 24 hours in 4% formalin (Sigma) and then moved to 70% ethanol for at least 24 hours before being processed. Tissue was then embedded in paraffin following dehydration for two washes of two hours each in 70%, 90%, and 100% ethanol, then cleared in xylene twice for two hours each, and infiltrated with melted paraplast plus at 60 C two times for two hours. Paraffin embedded tissues were stored at room temperature prior to sectioning and staining. An anti-human CD8 antibody (BioCare Medical CRM 311C) or isotype control was used for staining of the tissues based on the standard procedure for IHC.

[2] = test system: IL-15; assay: PT-18β cell proliferation assay (WST-1), IL-15; format: cell-based, murine; conditions: PT-18β cells, 1 nM cytokine, BNZ-γ as 1:20 or 1:60 dilution of HEK293T supernatant, 2 days
Source text: (§1) For each of the six γc-cytokines, indicator cell lines: NK92, a human NK cell line NK92 available by American Type Culture Collection (ATCC) (catalog #CRL-2407), CTLL-2, a murine CD8 T cells line available from ATCC, and PT-18, a murine mast cell line and its subclone PT-18β, is transfected with human IL-2Rβ gene to make the cells responsive to IL-2 and IL-15 (Tagaya et al., 1996, EMBO J. 15:4928-39), and is used to quantitatively determine the γc-cytokine's growth-promoting activity (See Current protocols in Immunology from Wiley and Sons for a methodological reference).
(§2) Once the appropriate doses of the cytokine that yield the 50% and 95% maximum response from the indicator cell line is determined, various concentrations (ranging from 1 pM to 10 μM) of the purified or synthesized custom derivative peptide is added to each well containing the cytokine and indicator cells. The reduction in light absorbance at 450 nm is used as an indicator of inhibition of cytokine-stimulated cellular proliferation. Typically, the cells are stimulated by the cytokines such that the absorbance of the well containing indicator cell line and the cytokine is between 2.0 and 3.0, which is reduced to a range of 0.1 to 0.5 by the addition of inhibitory peptides. […]
(§3) The growth-responses of the cells were determined 2 days after the introduction of BNZ-γ peptide and the cytokine using the WST-1 assay. […]

[3] = test system: IL-3; assay: PT-18β cell proliferation assay (WST-1), IL-3 as non-γc-cytokine negative control; format: cell-based, murine; conditions: PT-18β cells, 1 nM cytokine, BNZ-γ as 1:20 or 1:60 dilution of HEK293T supernatant, 2 days
Source text: as §1, §2, §3

[4] = test system: IL-9; assay: PT-18β cell proliferation assay (WST-1), IL-9; format: cell-based, murine; conditions: PT-18β cells, 1 nM cytokine, BNZ-γ as 1:20 or 1:60 dilution of HEK293T supernatant, 2 days
Source text: as §1, §2, §3

[5] = test system: IL-4; assay: PT-18β cell proliferation assay (WST-1), IL-4; format: cell-based, murine; conditions: PT-18β cells, 1 nM cytokine, BNZ-γ as 1:20 or 1:60 dilution of HEK293T supernatant, 2 days
Source text: as §1, §2, §3

[6] = test system: STAT5; assay: IL-15-stimulated tyrosine phosphorylation of STAT5 in PT-18β cells (anti-phospho-STAT5 immunoblot); format: cell-based, murine; conditions: PT-18β cells stimulated by IL-15, presence vs absence of BNZ-γ peptide
Source text: In addition to stimulating cellular proliferation, binding of the γc-cytokines to their receptors causes a diverse array of intracellular events. (Rochman et al. 2009 Nat. Rev. Immunol. 9:480-90, Pesu et al. 2005 Immunol. Rev. 203:127-142.) Immediately after the cytokine binds to its receptor, a tyrosine kinase called Jak3 (Janus-kinase 3) is recruited to the receptor at the plasma membrane. This kinase phosphorylates the tyrosine residues of multiple proteins including the γc-subunit, STAT5 (Signal Transducer and Activator of Transcription 5) and subunits of the PI3 (Phosphatidylinositol 3) kinase. Among these, the phosphorylation of STAT5 has been implicated in many studies as being linked to the proliferation of cells initiated by the γc-cytokine. (Reviewed in Hennighausen and Robinson, 2008 Genes Dev. 22:711-21.) In accordance with these published data, whether or not the BNZ-γ peptide inhibits the tyrosine phosphorylation of STAT5 molecule in PT-18β cells stimulated by IL-15 was examined (results shown in FIG. 4).
PT-18β cells were stimulated by IL-15 in the presence or absence of BNZ-γ peptide. Cytoplasmic proteins were extracted from the cells according to a conventional method as described in Tagaya et al. 1996 EMBO J. 15:4928-39. […]

[7] = test system: humanized NSG mice
Experimental: In this experiment, NSG mice were transplanted with 2 million huPBMCs on study day 0, with therapeutic treatment beginning 35-days post-transplant. Mice were treated twice weekly with IV injections of PBS control (n=5), BNZ-γ at 2 mg/kg (n=5), anti-IL-2 antibody at 5 mg/kg (n=3), anti-IL-15 antibody at 5 mg/kg (n=3), or combination anti-IL-2 and anti-IL-15 antibody each at 5 mg/kg (n=3) starting on day 35 for a treatment duration of 4 weeks.
Levels of IL-6 and IFNγ were also measured in this experiment. […] Cytokine levels were determined using sera collected on day 50, except for one animal in the anti-IL-2 antibody treatment group (collected on day 45), one mouse in the PBS control untreated group (collected on day 45), and two mice from the PBS control untreated group (collected on day 40) to ensure a blood sample was collected before each became fatally ill.

[8] = sera collected on day 50 (some earlier), vs PBS control

Question: How did the “number of infiltrated human CD8 T cells in skin tissue” value [1] turn out when “I-K-E-F-L-Q-R-F-I-H-I-V-Q-S-I-I-N-T-S (IKEFLQRFIHIVQSIINTS) [BNZ-γ]” was run?
Answer: Its value is “significant reduction in the number of infiltrated CD8 cells”.

Question: And the “growth-promoting activity of IL-15” value [2]?
Answer: Its value is “significantly (p<0.01 Student's T test) reduced”.

Question: What about the “growth-promoting activity of IL-3” value [3] of the same substance?
Answer: Its value is “not inhibited”.

Question: What about the “growth-promoting activity of IL-9” value [4] of the same substance?
Answer: The value was “significantly (p<0.01 Student's T test) reduced”.

Question: What about the “cellular proliferation stimulated by IL-4” value [5] of the same substance?
Answer: The value was “not affected”.

Question: And the “tyrosine phosphorylation of STAT5” value [6]?
Answer: Its value is “markedly reduced”.

Question: And the “survival of the BNZ-γ group relative to combination antibody treatment” value ([7]; BNZ-γ 2 mg/kg IV twice weekly, 4 weeks from day 35, the words are printed of the combination, BNZ-γ being the more effective (p=0.001))?
Answer: Its value is “less effective than BNZ-γ”.

Question: What about the regrowth of hair ([7]; approximately two weeks after treatment was completed (~day 63), 4-week treatment from day 35) of the same substance?
Answer: Its regrowth of hair is “greatest degree of hair regrowth of all 4 treatment groups”.

Question: What about the “level of IFNγ in sera” value [7, 8] of the same substance?
Answer: Its value is “most effective”.

Question: And the “level of IL-6 in sera” value [7, 8]?
Answer: The value was “most effective”.
